# Assay results: patent publication US20100204132A1, “[…] USES OF PEPTIDES […] and […]” (priority 2007, published 2010)
# Where no end group is shown, it is not given here.
# How the values were obtained:
# murine spleen cells = assay: Th1/Th2 cytokine profiling assay in Ovalbumin-restimulated spleen cells; type: cell-based, Balb/c mice; settings: 10 micrograms per ml, Ovalbumin restimulation, 72 hours
# HUVEC = assay: Endothelial tube formation assay; type: cell-based, human; settings: 10 micrograms per ml, 20 hours
# Source text: […] control wes vehicle only. […] Raw data were expressed as average tubule lenghs in pixels±standard deviation.
# [1] = system: hepatitis B virus (HBV) ayw strain; assay: HBV experimental assay system, secreted HBV DNA by TaqMan PCR; type: cell-based; settings: 10 micrograms per ml; HepG2-2.2.15 cells; six days
# Streptococcus pneumoniae = Streptococcus pneumoniae growth assay; type: cell-based; settings: 10 micrograms per ml; 5×10^5 CFU/mL
# [2] = system: Primary Human endothelial cells (HUVEC); assay: Endothelial cell migration assay; type: cell-based; settings: 10 micrograms per ml, 22 hours
# Description: Thereafter, designated concentration of testing peptides—10 micrograms per ml—was added in duplicate wells.
# HCMV strain AD169 = assay: HCMV plaque formation assay in MRC-5 cells; type: cell-based; settings: 10 micrograms per ml, 7-10 days
# Source text: Cells were split twic a week 1:2.
# Ganciclovir was used as positive control.
# HIV-1IIIB = assay: HIV-1 antiviral assay in CEM-SS cells (MTS readout)
Compound,change of the production of IFN-γ (murine spleen cells),change of the production of IL-5 (murine spleen cells),change of the production of TNF-a (murine spleen cells),induction (increase) of the production of IL-2 (murine spleen cells) [%],induction (increase) of the production of IL-4 (murine spleen cells) [%],inhibition of the tube formation of human endothelial cells (HUVEC) [%],inhibition of HBV replication as compared to the virus control infection [1] [%],inhibition of the growth of Streptococcus pneumoniae (Streptococcus pneumoniae) [%],increase of the migration of human endothelial cells [2] [%],inhibition of HCMV plaque formation as compared to the virus control (HCMV strain AD169),antiviral activity of positive control compounds (HIV-1) (HIV-1IIIB)
Trp-Met-Asn-Ser-Thr-Gly-Phe-Thr-Lys-Val-Cys-Gly-Ala-Pro-Pro-Cys-OH (WMNSTGFTKVCGAPPC-OH; cysteine pairing not given here) [Peptide 2],did not significantly change,did not significantly change,did not significantly change,92.6,87.3,8,53.2,100,7,did not inhibit,–
CC(C)(C)NC(=O)[C@@H]1CN(Cc2cccnc2)CCN1C[C@@H](O)C[C@@H](Cc1ccccc1)C(=O)N[C@H]1c2ccccc2C[C@H]1O [indinavir],–,–,–,–,–,–,–,–,–,–,expected levels of antiviral activity
Cc1cn([C@H]2C[C@H](N=[N+]=[N-])[C@@H](CO)O2)c(=O)[nH]c1=O [AZT],–,–,–,–,–,–,–,–,–,–,expected levels of antiviral activity
Tyr-Ser-Ala-Tyr-Pro-Asp-Ser-Val-Pro-Met-Met-Ser-OH [Peptide 1],did not significantly change,did not significantly change,did not significantly change,82.2,74.3,4,51.1,100,4,did not inhibit,–
